Patent US9314464B2, “Compounds and compositions as protein kinase inhibitors” (Novartis AG, priority 2009, dated 2016)

Assays:
[1] = Liver Microsomal Clearance Assay, human; assay type: in vitro ADME; settings: extraction ratio, human liver microsomes
Procedure: (§1) Liver Microsomal Clearance Assay
(§2) The in vitro microsomal clearance assay is designed to assess potential risks associated with hepatic metabolic stability of compounds. The test compound (1 μM) was incubated with liver microsomes (0.5 mg/mL) from different species (mouse, rat, monkey, dog and human) and NADPH (1 mM) in 100 mM potassium phosphate buffer at 37° C. At specific reaction time points (0, 5, 10 and 30 minutes), reaction aliquots were removed and reactions were terminated by addition of ice cold acetonitrile containing mass spectrometry internal standard. The samples were centrifuged and the supernatants were analyzed by LC-MS/MS. In vitro metabolic half-life (t1/2, min) and intrinsic clearance (CLint, μL/min/mg) are based on the rate and extent of metabolism of the test compound as determined by the disappearance of the parent compound from the reaction mixture. These values may be scaled to predict hepatic metabolic clearance rate (CLh, mL/min/kg) and extraction ratio (ER, expressed as a ratio of the predicted hepatic metabolic clearance to hepatic blood flow in that species). In general, compounds with high predicted CLint or ER in vitro are considered to be at high risk for exposure-limiting metabolism in vivo.

[2] = Liver Microsomal Clearance Assay, mouse; assay type: in vitro ADME; settings: extraction ratio, mouse liver microsomes
Procedure: as §1, §2

[3] = In Vivo Pharmacokinetics Assay in mouse
Procedure: (§3) Full pharmacokinetics study: Male Balb/c mice (n=3, body weights 22-25 g) or male Wistar rats (n=3, body weights 250-300 g) were administered the test compound intravenously via the lateral tail vein or orally via gavage. The formulation was typically a 2.5 mg/mL solution of the compound in 75% PEG300 and 25% D5W. Six blood samples of 50 μL each were collected serially for 24 h after dosing. The blood samples were centrifuged to separate the plasma. Plasma samples were analyzed and quantified by LC-MS/MS.
as §3, with “Rapid” for “Full”, “intravenously (IV)” for “intravenously”, “orally (PO)” for “orally”, “Blood” for “The blood”, “and plasma separated and pooled across” for “to separate”, “three animals at each time point per dose route.” for “plasma.”
For both full and rapid pharmacokinetics studies, the following parameters were calculated by non-compartmental regression analysis using Winnonlin 5.0 software (Pharsight, Mountain View, Calif., USA): plasma clearance (Cl), plasma maximum concentration (Cmax), plasma area-under-the-concentration-time-curve (AUC0-inf), and percent oral bioavailability (F %).

[4] = test system: A375 cells; assay: In Vivo Efficacy - 14 Day A375 Mouse Xenograft Model
Procedure: A375 cells were grown in sterile conditions in a 37° C. incubator with 5% CO2 for two to four weeks. The cells were cultured in RPMI-1640 media supplemented with 10% FBS. Cells were passaged twice weekly with 0.05% Trypsin/EDTA. On the day of implant, cells were harvested in HBSS (Hank's Balanced Salt Solution). Female Nu/Nu mice (Charles River, 10-11 weeks at start of study) were implanted with 5×10^6 A375 cells/mouse in 50% matrigel, 0.2 mL SQ right flank on day 1. At 19 days post-implant, mice were randomized into 6 groups (9 mice per group), with an average tumor volume of 215 mm^3 and average body weight of 24 g. Test compound was dosed BID for 14 days commencing on day 19 using a dosing volume 0.2 mL per dose, with compound formulated at the appropriate concentration to attain the desired dose level. Clinical observations were made daily. Tumor volume and body weight were measured twice weekly.
Tumor volume results were assessed at 14 days post-first dose. Partial response is defined as having tumor growth 20-50% of control tumor growth. Stable disease is defined as having final tumor volume within +/−20% of initial tumor size. Partial regression is defined as having final tumor volume<80% of initial tumor volume.

[5] = test system: SW620 cells; assay: SW620 Cell Viability Assay (Cell Titer Glo); assay type: cell-based; settings: FIG. 1, compound alone
Procedure: The present invention also includes combinations of the BRaf inhibitors disclosed in this invention with other agents. In particular, the present invention provides for combinations with MEK1/2 inhibitors. FIG. 1 illustrates that the addition of a MEK small molecule inhibitor can reverse the induced ERK signaling, cell growth and transformation caused by a Raf small molecule inhibitor.
SW620 cells were seeded in 1640 RPMI+10% FBS at a density of 1500 cells per 96-well in black walled, clear bottom tissue culture treated plates. Test compounds were serially diluted in DMSO then added to the cells (final DMSO concentration of 0.1%) and incubated at 37° C. and 5% CO2 for 4 days. To measure cell viability, cell plates were brought to room temperature, culture media was removed, and 200 μl of Cell Titer-Glo reagent (Promega, kit components mixed as per the manufacturer's protocol then diluted 1:2 with growth media) was added to each well. Plates were shaken for 5 minutes, then incubated at room temperature for 5 minutes, and the luminescence was measured (Trilux, Perkin Elmer).

## COC(=O)N[C@@H](C)CNc1nccc(-c2cn(C(C)C)nc2-c2cc(Cl)cc(NS(C)(=O)=O)c2F)n1 [Compound 9, Methyl N-[(2S)-1-({4-[3-(5-chloro-2-fluoro-3-methanesulfonamidophenyl)-1-(propan-2-yl)-1H-pyrazol-4-yl]pyrimidin-2-yl}amino)propan-2-yl]carbamate]
[1]
  ER Human: <0.21
[2]
  ER Mouse: 0.48
[3]; PO 10 mg/kg
  PO AUC: 30 ± 4 µM·h
[3]; male, Balb/c, plasma, 10 mg/kg, PO/IV 10/2 mg/kg
  bioavailability at 24 h: 43 ± 6%
[3]; male, Balb/c, plasma, IV 2 mg/kg
  clearance at 24 h: 4.3 ± 0.4 mL/min/kg
[3]; male, Balb/c, plasma, PO 10 mg/kg
  Cmax at 24 h: 27 ± 4 µM
[3]; male, Balb/c, plasma, oral dose of 10 mg/kg
  AUC: 30 ± 4 µM·h
[4]; 1 mg/kg bid×14, 14 days post-first dose
  Tumor volume result: partial response (Partial response is defined as having tumor growth 20-50% of control tumor growth)
[4]; 3 mg/kg bid×14, 14 days post-first dose
  Tumor volume result: stable disease (Stable disease is defined as having final tumor volume within +/−20% of initial tumor size)
[4]; 10 mg/kg bid×14, 14 days post-first dose
  Tumor volume result: partial regression (Partial regression is defined as having final tumor volume<80% of initial tumor volume)
[4]; 20 mg/kg bid×14, 14 days post-first dose
  Tumor volume result: partial regression (Partial regression is defined as having final tumor volume<80% of initial tumor volume)
[5]
  cellular proliferation in Cell Titer Glo assay: induction in cellular proliferation
